Test [1] relates to HIF1a protein in H9c2 rat cardiomyocytes. Nature of the test: Cell-based HIF-alpha stabilization assay (inhibition of PHD in cells). To be noted: Rattus norvegicus, H9c2, 24 h, 24 hrs compound incubation, HIF1a protein by ELISA, read-out: Inhibition of PHD in cells (pEC50) (converted). In a few lines: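 HIF1a stabilization was measured by ELISA on lysates of H9c2 rat cardiomyocytes after 24 h exposure to 11 serial compound concentrations, expressed relative to the desferrioxamine maximum. Curve fits gave EC50. EC50pos denotes the concentration producing half the desferrioxamine maximal response.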
A general note: In an ELISA, binding on a coated surface is turned into a signal by an enzyme label.

The target in test [2] is PHD2 enzyme (residues 181-417) (Homo sapiens (Human), UniProt Q9GZT9). Nature of the test: Inhibition of PHD enzyme (LC/MS peptide hydroxylation assay). It counts as biochemical. To be noted: PHD2 (residues 181-417) 5 nM, 60 min pre-incubation; -log(IC50), IC50 molar. In a few lines:
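Hydroxylated peptide quantified by LC/MS after 60 min turnover of 1 uM biotinylated peptide with 2 uM 2-oxoglutarate and 1 mM ascorbate, stopped by excess tight-binding inhibitor. Beforehand, 5 nM enzyme and compound were preincubated 60 min at RT, pH 7.3 HEPES/KCl/TCEP/FeCl2/BSA buffer. Values as pIC50 (−log molar IC50).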

Chain of PHD2 enzyme (residues 181-417) (Q9GZT9 181-417): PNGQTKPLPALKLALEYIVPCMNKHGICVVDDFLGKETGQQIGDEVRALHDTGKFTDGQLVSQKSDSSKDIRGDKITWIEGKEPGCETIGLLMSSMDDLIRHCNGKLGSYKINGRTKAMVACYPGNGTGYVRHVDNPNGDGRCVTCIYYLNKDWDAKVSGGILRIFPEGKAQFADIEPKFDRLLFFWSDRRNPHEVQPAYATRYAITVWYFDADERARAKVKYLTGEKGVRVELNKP

Consider `CCN1CCN(C(=O)c2ccc(-n3ncc(-c4ccc(C#N)c(F)c4C)c3O)nc2)C[C@H]1C` [Example 338, (R)-4-(1-(5-(4-ethyl-3-methylpiperazine-1-carbonyl)pyridin-2-yl)-5-hydroxy-1H-pyrazol-4-yl)-2-fluoro-3-methylbenzonitrile], for which, in test [1], the EC50 is 933 nM. In test [2], the “PHD Inhibition (pIC50)” value is on record as 8.40.

Regarding `Cc1c(-c2cnn(-c3ccc(C(=O)N4CCN(C(C)C)[C@@H](C)C4)cn3)c2O)ccc(C#N)c1F` [Example 339, (S)-2-fluoro-4-(5-hydroxy-1-(5-(4-isopropyl-3-methylpiperazine-1-carbonyl)pyridin-2-yl)-1H-pyrazol-4-yl)-3-methylbenzonitrile], the EC50 in test [1] is 2040 nM. The “PHD Inhibition (pIC50)” value in test [2] is reported as 8.29.

On to `Cc1c(-c2cnn(-c3ccc(C(=O)N4CCN(C)[C@H](C)C4)cn3)c2O)ccc(C#N)c1F` [Example 340, (R)-4-(1-(5-(3,4-dimethylpiperazine-1-carbonyl)pyridin-2-yl)-5-hydroxy-1H-pyrazol-4-yl)-2-fluoro-3-methylbenzonitrile], for which, in test [1], the EC50 is 759 nM. Moreover, the “PHD Inhibition (pIC50)” value in test [2] turned out to be 8.39.

Turning to `CCN1CCN(C(=O)c2ccc(-n3ncc(-c4ccc(C#N)c(F)c4C)c3O)nc2)[C@@H](C)C1` [Example 341, (S)-4-(1-(5-(4-ethyl-2-methylpiperazine-1-carbonyl)pyridin-2-yl)-5-hydroxy-1H-pyrazol-4-yl)-2-fluoro-3-methylbenzonitrile], the EC50 in test [1] is 589 nM. Moreover, the “PHD Inhibition (pIC50)” value in test [2] is reported as 8.47.

For `Cc1c(-c2cnn(-c3ccc(C(=O)N4CC5(CN(C)C5)C4)cn3)c2O)ccc(C#N)c1F` [Example 342, 2-fluoro-4-(5-hydroxy-1-(5-(6-methyl-2,6-diazaspiro[3.3]heptane-2-carbonyl)pyridin-2-yl)-1H-pyrazol-4-yl)-3-methylbenzonitrile], in test [1], the EC50 was 427 nM. Besides, the “PHD Inhibition (pIC50)” value in test [2] is 7.60.

For `Cc1cc(C#N)c(F)cc1-c1cnn(-c2ccc(C(=O)N3CC4(CN(C)C4)C3)cn2)c1O` [Example 343, 2-fluoro-4-(5-hydroxy-1-(5-(6-methyl-2,6-diazaspiro[3.3]heptane-2-carbonyl)pyridin-2-yl)-1H-pyrazol-4-yl)-5-methylbenzonitrile], the EC50 in test [1] is 1150 nM. Also, in test [2], the “PHD Inhibition (pIC50)” value was 8.07.

For `Cc1cc(C#N)ccc1-c1cnn(-c2ccc(C(=O)N3CC(N4CCCCC4)C3)cn2)c1O` [Example 344, 4-(5-hydroxy-1-(5-(3-(piperidin-1-yl)azetidine-1-carbonyl)pyridin-2-yl)-1H-pyrazol-4-yl)-3-methylbenzonitrile], in test [1], the EC50 is 468 nM. Further, in test [2], the “PHD Inhibition (pIC50)” value was 8.17.

On to `Cc1cc(C#N)ccc1-c1cnn(-c2ccc(C(=O)N3CC(N(C)C)C3)cn2)c1O` [Example 345, 4-(1-(5-(3-(dimethylamino)azetidine-1-carbonyl)pyridin-2-yl)-5-hydroxy-1H-pyrazol-4-yl)-3-methylbenzonitrile], for which the EC50 in test [1] is 363 nM. The “PHD Inhibition (pIC50)” value in test [2] is listed as 8.35.

On to `Cc1cc(C#N)ccc1-c1cnn(-c2ccc(C(=O)N3CCC4(CCN(C)C4)C3)cn2)c1O` (stereo not shown) [Example 346, 4-(5-hydroxy-1-(5-(7-methyl-2,7-diazaspiro[4.4]nonane-2-carbonyl)pyridin-2-yl)-1H-pyrazol-4-yl)-3-methylbenzonitrile], for which, in test [1], the EC50 is 372 nM. Moreover, the “PHD Inhibition (pIC50)” value in test [2] is 7.75.

`Cc1cc(C#N)ccc1-c1cnn(-c2ccc(C(=O)N3CCC(N4CCOCC4)C3)cn2)c1O` (stereo not shown) [Example 347, 4-(5-hydroxy-1-(5-(3-morpholinopyrrolidine-1-carbonyl)pyridin-2-yl)-1H-pyrazol-4-yl)-3-methylbenzonitrile]: the EC50 in test [1] was 631 nM. In test [2], the “PHD Inhibition (pIC50)” value is listed as 8.29.

For the compound `Cc1cc(C#N)ccc1-c1cnn(-c2ccc(C(=O)N3CCC[C@H]3CN3CCCC3)cn2)c1O` [Example 348, (S)-4-(5-hydroxy-1-(5-(2-(pyrrolidin-1-ylmethyl)pyrrolidine-1-carbonyl)pyridin-2-yl)-1H-pyrazol-4-yl)-3-methylbenzonitrile], in test [1], the EC50 is 741 nM. Moreover, the “PHD Inhibition (pIC50)” value in test [2] was found to be 7.72.

Turning to `Cc1cc(C#N)ccc1-c1cnn(-c2ccc(C(=O)N3CCC(CN(C)C)C3)cn2)c1O` (stereo not shown) [Example 349, 4-(1-(5-(3-((dimethylamino)methyl)pyrrolidine-1-carbonyl)pyridin-2-yl)-5-hydroxy-1H-pyrazol-4-yl)-3-methylbenzonitrile], the EC50 in test [1] was 479 nM. For the same compound, in test [2], the “PHD Inhibition (pIC50)” value worked out at 7.77.

`CN1CCC2(CCN(C(=O)c3ccc(-n4ncc(-c5ccc(C#N)cc5)c4O)nc3)C2)C1` (stereo not shown) [Example 350, 4-(5-hydroxy-1-(5-(7-methyl-2,7-diazaspiro[4.4]nonane-2-carbonyl)pyridin-2-yl)-1H-pyrazol-4-yl)benzonitrile]: the EC50 in test [1] is 3310 nM. Moreover, the “PHD Inhibition (pIC50)” value in test [2] was 7.26.

For the compound `N#Cc1ccc(-c2cnn(-c3ccc(C(=O)N4CCC(N5CCOCC5)C4)cn3)c2O)cc1` (stereo not shown) [Example 351, 4-(5-hydroxy-1-(5-(3-morpholinopyrrolidine-1-carbonyl)pyridin-2-yl)-1H-pyrazol-4-yl)benzonitrile], the EC50 in test [1] was 5370 nM. The “PHD Inhibition (pIC50)” value in test [2] amounted to 7.67.

For the compound `N#Cc1ccc(-c2cnn(-c3ccc(C(=O)N4CCC[C@H]4CN4CCCC4)cn3)c2O)cc1` [Example 352, (S)-4-(5-hydroxy-1-(5-(2-(pyrrolidin-1-ylmethyl)pyrrolidine-1-carbonyl)pyridin-2-yl)-1H-pyrazol-4-yl)benzonitrile], the EC50 in test [1] was 3470 nM. In test [2], the “PHD Inhibition (pIC50)” value was determined as 7.47.

With `CN(C)CC1CCN(C(=O)c2ccc(-n3ncc(-c4ccc(C#N)cc4)c3O)nc2)C1` (stereo not shown) [Example 353, 4-(1-(5-(3-((dimethylamino)methyl)pyrrolidine-1-carbonyl)pyridin-2-yl)-5-hydroxy-1H-pyrazol-4-yl)benzonitrile], in test [1], the EC50 was 3550 nM. Further, the “PHD Inhibition (pIC50)” value in test [2] worked out at 7.25.

In the case of `COCCC1(NC(=O)c2ccc(-n3ncc(-c4ccc(C#N)cc4)c3O)nc2)CCCC1` [Example 354, 6-(4-(4-cyanophenyl)-5-hydroxy-1H-pyrazol-1-yl)-N-(1-(2-methoxyethyl)cyclopentyl)nicotinamide], the EC50 in test [1] was 1580 nM. Also, the “PHD Inhibition (pIC50)” value in test [2] came to 8.36.

For `CCN1CCCC1CN(C)C(=O)c1ccc(-n2ncc(-c3ccc(C#N)cc3C)c2O)nc1` (stereo not shown) [Example 355, 6-(4-(4-cyano-2-methylphenyl)-5-hydroxy-1H-pyrazol-1-yl)-N-((1-ethylpyrrolidin-2-yl)methyl)-N-methylnicotinamide], the EC50 in test [1] was 724 nM. The “PHD Inhibition (pIC50)” value in test [2] came to 7.94.

Turning to `COCCC1(NC(=O)c2ccc(-n3ncc(-c4ccc(C#N)cc4C)c3O)nc2)CCCC1` [Example 356], in test [1], the EC50 was 977 nM. For the same compound, the “PHD Inhibition (pIC50)” value in test [2] was found to be 8.16.

In the case of `COCC[C@@H](C)NC(=O)c1ccc(-n2ncc(-c3ccc(C#N)cc3)c2O)nc1` [Example 357, (R)-6-(4-(4-cyanophenyl)-5-hydroxy-1H-pyrazol-1-yl)-N-(4-methoxybutan-2-yl)nicotinamide], in test [1], the EC50 is 2400 nM. In addition, in test [2], the “PHD Inhibition (pIC50)” value was found to be 8.46.

Source of the values: US10407409B2, “6-(5-hydroxy-1H-pyrazol-1-yl)nicotinamide inhibitors of PHD” (Takeda Pharmaceutical Company Limited, priority 2013, dated 2019).
